Laboratory results as given in ChEMBL document CHEMBL4665642, “Anticancer profile of newly synthesized BRAF inhibitors possess 5-(pyrimidin-4-yl)imidazo[2,1-b]thiazole scaffold” (Bioorg Med Chem, 2019).

How the values were obtained:
Hs-578T = assay: Cytotoxicity against human HS-578T cells assessed as cell viability at 10 uM incubated for 48 hrs by sulforhodamine B assay relative to control; assay type: functional; conditions: read-out: Activity
SF-539 = assay: Cytotoxicity against human SF-539 cells assessed as cell viability at 10 uM incubated for 48 hrs by sulforhodamine B assay relative to control; assay type: functional; conditions: read-out: Activity
A-375 = assay: Cytotoxicity against human A-375 cells assessed as reduction in cell viability by MTT assay; assay type: functional, cell-based
EKVX = assay: Cytotoxicity against human EKVX cells assessed as cell viability at 10 uM incubated for 48 hrs by sulforhodamine B assay relative to control; assay type: functional; conditions: read-out: Activity
HCT-116 = assay: Cytotoxicity against human HCT-116 cells assessed as cell viability at 10 uM incubated for 48 hrs by sulforhodamine B assay relative to control; assay type: functional; conditions: read-out: Activity
Malme-3M = assay: Cytotoxicity against human Malme-3M cells assessed as cell viability at 10 uM incubated for 48 hrs by sulforhodamine B assay relative to control; assay type: functional; conditions: read-out: Activity
UACC-62 = assay: Cytotoxicity against human UACC-62 cells assessed as cell viability at 10 uM incubated for 48 hrs by sulforhodamine B assay relative to control; assay type: functional; conditions: read-out: Activity
[1] = target: RAF proto-oncogene serine/threonine-protein kinase (Homo sapiens, UniProt P04049); assay: Inhibition of human CRAF using MEK1 as substrate by [gamma-33P]-ATP assay
NCI-H522 = assay: Cytotoxicity against human NCI-H522 cells assessed as cell viability at 10 uM incubated for 48 hrs by sulforhodamine B assay relative to control; assay type: functional; conditions: read-out: Activity
[2] = target: Serine/threonine-protein kinase B-raf (Homo sapiens, UniProt P15056, V600E); assay: Inhibition of human BRAF V600E mutant using MEK1 as substrate by […] assay
SK-MEL-5 = assay: Cytotoxicity against human SK-MEL-5 cells assessed as cell viability at 10 uM incubated for 48 hrs by sulforhodamine B assay relative to control; assay type: functional; conditions: read-out: Activity
RXF 393 = assay: Cytotoxicity against human RXF 393 cells assessed as cell viability at 10 uM incubated for 48 hrs by sulforhodamine B assay relative to control; assay type: functional; conditions: read-out: Activity
HCC 2998 = assay: Cytotoxicity against human HCC 2998 cells assessed as cell viability at 10 uM incubated for 48 hrs by sulforhodamine B assay relative to control; assay type: functional; conditions: read-out: Activity
UACC-257 = assay: Cytotoxicity against human UACC-257 cells assessed as cell viability at 10 uM incubated for 48 hrs by sulforhodamine B assay relative to control; assay type: functional; conditions: read-out: Activity
SK-MEL-28 = assay: Cytotoxicity against human SK-MEL-28 cells assessed as reduction in cell viability by MTT assay; assay type: functional, cell-based
UO-31 = assay: Cytotoxicity against human UO-31 cells assessed as cell viability at 10 uM incubated for 48 hrs by sulforhodamine B assay relative to control; assay type: functional; conditions: read-out: Activity
OVCAR-5 = assay: Cytotoxicity against human OVCAR-5 cells assessed as cell viability at 10 uM incubated for 48 hrs by sulforhodamine B assay relative to control; assay type: functional; conditions: read-out: Activity
MOLT-4 = assay: Cytotoxicity against human MOLT-4 cells assessed as cell viability at 10 uM incubated for 48 hrs by sulforhodamine B assay relative to control; assay type: functional; conditions: read-out: Activity
[3] = target: Serine/threonine-protein kinase B-raf (Homo sapiens, UniProt P15056); assay: Inhibition of human BRAF using MEK1 as substrate by […] assay
T47D = assay: Cytotoxicity against human T47D cells assessed as cell viability at 10 uM incubated for 48 hrs by sulforhodamine B assay relative to control; assay type: functional; conditions: read-out: Activity
SW-620 = assay: Cytotoxicity against human SW-620 cells assessed as cell viability at 10 uM incubated for 48 hrs by sulforhodamine B assay relative to control; assay type: functional; conditions: read-out: Activity
SK-MEL-2 = assay: Cytotoxicity against human SK-MEL-2 cells assessed as cell viability at 10 uM incubated for 48 hrs by sulforhodamine B assay relative to control; assay type: functional; conditions: read-out: Activity
U-251 = assay: Cytotoxicity against human U-251 cells assessed as cell viability at 10 uM incubated for 48 hrs by sulforhodamine B assay relative to control; assay type: functional; conditions: read-out: Activity
L132 = assay: Cytotoxicity against human L132 cells assessed as reduction in cell viability by MTT assay; assay type: cell-based

Sequence of Serine/threonine-protein kinase B-raf (Homo sapiens, UniProt P15056) (P15056 whole entry): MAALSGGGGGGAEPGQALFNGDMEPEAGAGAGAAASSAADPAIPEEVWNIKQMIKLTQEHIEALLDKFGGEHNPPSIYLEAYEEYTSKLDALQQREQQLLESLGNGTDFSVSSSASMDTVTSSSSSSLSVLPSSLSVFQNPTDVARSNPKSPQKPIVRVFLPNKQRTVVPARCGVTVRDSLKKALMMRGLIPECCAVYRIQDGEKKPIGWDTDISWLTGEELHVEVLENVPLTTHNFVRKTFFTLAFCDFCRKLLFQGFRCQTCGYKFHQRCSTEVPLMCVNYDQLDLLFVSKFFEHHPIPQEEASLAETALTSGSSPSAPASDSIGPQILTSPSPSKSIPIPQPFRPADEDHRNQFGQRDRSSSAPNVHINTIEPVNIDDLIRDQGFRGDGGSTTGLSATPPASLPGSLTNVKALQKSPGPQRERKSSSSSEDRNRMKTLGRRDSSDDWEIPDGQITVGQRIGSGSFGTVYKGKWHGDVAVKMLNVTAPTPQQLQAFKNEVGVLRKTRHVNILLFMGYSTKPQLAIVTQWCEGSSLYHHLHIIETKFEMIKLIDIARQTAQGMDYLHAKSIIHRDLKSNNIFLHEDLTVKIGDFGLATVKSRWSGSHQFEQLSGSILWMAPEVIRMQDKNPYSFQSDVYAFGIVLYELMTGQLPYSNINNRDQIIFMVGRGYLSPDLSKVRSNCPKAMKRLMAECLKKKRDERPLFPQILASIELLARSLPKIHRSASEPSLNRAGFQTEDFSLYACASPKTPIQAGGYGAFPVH
Sequence of RAF proto-oncogene serine/threonine-protein kinase (P04049 whole entry): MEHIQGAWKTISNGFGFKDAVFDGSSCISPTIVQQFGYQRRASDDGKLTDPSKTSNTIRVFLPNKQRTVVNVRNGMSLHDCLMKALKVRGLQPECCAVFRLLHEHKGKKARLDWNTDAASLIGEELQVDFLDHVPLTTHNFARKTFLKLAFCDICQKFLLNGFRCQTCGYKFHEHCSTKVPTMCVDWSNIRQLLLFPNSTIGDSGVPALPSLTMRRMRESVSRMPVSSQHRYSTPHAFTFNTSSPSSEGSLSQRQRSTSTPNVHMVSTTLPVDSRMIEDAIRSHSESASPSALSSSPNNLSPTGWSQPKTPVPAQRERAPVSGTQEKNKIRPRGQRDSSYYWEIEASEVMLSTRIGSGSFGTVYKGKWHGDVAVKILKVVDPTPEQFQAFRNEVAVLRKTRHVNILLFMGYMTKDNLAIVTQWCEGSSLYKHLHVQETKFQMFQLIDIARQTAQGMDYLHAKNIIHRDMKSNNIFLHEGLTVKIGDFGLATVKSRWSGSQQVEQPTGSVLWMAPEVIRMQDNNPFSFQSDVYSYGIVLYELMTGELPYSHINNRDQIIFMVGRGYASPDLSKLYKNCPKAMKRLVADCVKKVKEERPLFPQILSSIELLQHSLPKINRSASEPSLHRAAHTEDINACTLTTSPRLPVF
Sequence of Serine/threonine-protein kinase B-raf (Homo sapiens, UniProt P15056, V600E) (P15056 2-766 V600E limits assumed): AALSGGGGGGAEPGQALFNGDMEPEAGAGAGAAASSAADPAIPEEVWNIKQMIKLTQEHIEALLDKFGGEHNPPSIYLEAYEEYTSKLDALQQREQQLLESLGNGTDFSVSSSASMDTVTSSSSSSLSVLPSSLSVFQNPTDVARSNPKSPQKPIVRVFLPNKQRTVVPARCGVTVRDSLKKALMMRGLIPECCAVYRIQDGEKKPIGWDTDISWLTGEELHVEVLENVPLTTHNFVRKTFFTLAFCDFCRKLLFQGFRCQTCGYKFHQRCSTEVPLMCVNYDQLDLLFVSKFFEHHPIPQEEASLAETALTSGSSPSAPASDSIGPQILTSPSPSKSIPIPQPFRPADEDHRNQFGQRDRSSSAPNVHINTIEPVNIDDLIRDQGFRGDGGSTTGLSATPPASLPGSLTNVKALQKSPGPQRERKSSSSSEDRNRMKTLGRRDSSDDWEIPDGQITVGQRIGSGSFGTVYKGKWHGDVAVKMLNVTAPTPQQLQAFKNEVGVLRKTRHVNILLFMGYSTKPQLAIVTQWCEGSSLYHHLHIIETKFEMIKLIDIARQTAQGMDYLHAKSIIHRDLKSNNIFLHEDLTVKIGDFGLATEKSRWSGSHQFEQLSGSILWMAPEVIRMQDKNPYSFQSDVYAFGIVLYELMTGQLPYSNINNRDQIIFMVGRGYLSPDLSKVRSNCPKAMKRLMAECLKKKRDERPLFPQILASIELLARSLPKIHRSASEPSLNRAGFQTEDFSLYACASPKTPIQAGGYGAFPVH

SMILES | viability at 10 µM (Hs-578T) | viability at 10 µM (SF-539) | IC50 (A-375) | viability at 10 µM (EKVX) | viability at 10 µM (HCT-116) | viability at 10 µM (Malme-3M) | viability at 10 µM (UACC-62) | viability at 10 µM (NCI-H522) | viability at 10 µM (SK-MEL-5) | viability at 10 µM (RXF 393) | viability at 10 µM (HCC 2998) | viability at 10 µM (UACC-257) | IC50 (SK-MEL-28) | viability at 10 µM (UO-31) | viability at 10 µM (OVCAR-5) | viability at 10 µM (MOLT-4) | viability at 10 µM (T47D) | viability at 10 µM (SW-620) | viability at 10 µM (SK-MEL-2) | viability at 10 µM (U-251) | further results
O=C(NCCNc1nccc(-c2c(-c3cccc(F)c3)nc3sccn23)n1)c1ccc(Cl)cc1 | 74.8% | 90% | 2570 nM | 63.2% | 33% | 34.9% | 14.7% | 68.4% | 33.6% | 72.9% | 90.1% | 76% | 8160 nM | 28.1% | 88.3% | 65.7% | 49% | 65.2% | 62.5% | 66.1% | IC50 [1]: 120 nM; IC50 [2]: 27.2 nM; IC50 [3]: 105 nM
O=S(=O)(NCCCNc1nccc(-c2c(-c3cccc(F)c3)nc3sccn23)n1)c1ccccc1 | 89.9% | 99.1% | 6600 nM | 65.4% | 56.7% | 82.1% | 26.8% | 47% | 30.7% | 84% | 120% | 86.7% | 6850 nM | 39% | 121% | 37.1% | 14.4% | 91.3% | 65.1% | 82.3% | IC50 (L132): > 400000 nM
O=S(=O)(NCCNc1nccc(-c2c(-c3cccc(F)c3)nc3sccn23)n1)c1ccc(C(F)(F)F)cc1 | 82.6% | 103% | 7440 nM | 86.5% | 67.8% | 115% | 73.3% | 85% | 84% | 92.1% | 111% | 109% | 8450 nM | 51.7% | 122% | 57.5% | 62.5% | 110% | 98.8% | 89.8% | IC50 [1]: 88.4 nM; IC50 [2]: 22.3 nM; IC50 [3]: 85.2 nM
O=S(=O)(NCCCNc1nccc(-c2c(-c3cccc(F)c3)nc3sccn23)n1)c1ccc(C(F)(F)F)cc1 | 83.5% | 110% | 4090 nM | 87.3% | 86.2% | 127% | 80.4% | 85.5% | 91.1% | 94.7% | 125% | 110% | 11600 nM | 57.9% | 129% | 62% | 56% | 115% | 89.9% | 95.1% | IC50 [1]: 40 nM; IC50 (L132): 320000 nM; IC50 [2]: 26 nM; IC50 [3]: 63 nM
O=S(=O)(NCCCNc1nccc(-c2c(-c3cccc(F)c3)nc3sccn23)n1)c1ccc(Br)cc1 | 71.7% | 98% | 7040 nM | 57.4% | 46.2% | 69.4% | 18.3% | 37.9% | 21.2% | 81.8% | 96.9% | 62.4% | 9400 nM | 31.6% | 110% | 33.8% | 13.7% | 77.6% | 61.4% | 76.7% | IC50 [1]: 18.6 nM; IC50 [2]: 9.3 nM; IC50 [3]: 22.9 nM
